Here are results for 37 compounds from patent US6218157A, “Haloacetoacetate reductase, method for producing said enzyme, and method for producing alcohols using said enzyme” (priority 1997, dated 2001).

Read-outs that look alike come from different tables or passages of the source.

Common to all, as to assay type: biochemical
In assay [1] the target is T1, ethyl 4-chloroacetoacetate reductase (Kluyveromyces lactis, UniProt Q6CT25).
T1 construct: almost single band, about 190 kDa on SDS-PAGE
Nature of the assay: Substrate specificity: reducing activity of the enzyme on various ketones and aldehydes. The note with it: for Relative activity: coenzyme NADPH, ethyl 4-chloroacetoacetate-reducing activity = 100%; for Reducing activity on substrate (in words): NADPH as electron donor. The protocol:
(§1) In these examples, the 4-haloacetoacetic acid ester-reducing activity of the enzyme of this invention was determined by allowing it to react in a reaction system containing 50 mM potassium phosphate buffer (pH 6.5), 0.2 mM NADPH, 20 mM ethyl 4-chloroacetoacetate, and the enzyme at 30° C. and measuring the decrease in the absorbance at 340 nm in proportion to the decrease of NADPH. One unit of the enzyme was defined as the amount of the enzyme to catalyze a decrease of 1 μmol of NADPH per min. Protein was quantitated by the pigment binding method using a protein assay kit manufactured by BioRad.

The target in assay [2] is T1, ethyl 4-chloroacetoacetate reductase. Described as above. The note with it: substrate 20 mM, coenzyme NAD; ethyl 4-chloroacetoacetate-reducing activity = 100%.
The target is the same in assay [3]. The assay can be described thus: Effects of various inhibitors on the ethyl 4-chloroacetoacetate-reducing activity. As for the experimental part: as §1
After the enzyme obtained in Example 1 was treated with various reagents at 30° C. for 10 min, it was assayed for the remaining activity to reduce ethyl 4chloroacetoacetate.

[4] abbreviates: inhibitor 1 mM, 30° C., 10 min, standard conditions = 100%.
Where [5] appears, read: inhibitor 1 mM, 30° C., 10 min, standard conditions = 100%, read-out: Residual activity.

T1 sequence (Q6CT25 1-1893): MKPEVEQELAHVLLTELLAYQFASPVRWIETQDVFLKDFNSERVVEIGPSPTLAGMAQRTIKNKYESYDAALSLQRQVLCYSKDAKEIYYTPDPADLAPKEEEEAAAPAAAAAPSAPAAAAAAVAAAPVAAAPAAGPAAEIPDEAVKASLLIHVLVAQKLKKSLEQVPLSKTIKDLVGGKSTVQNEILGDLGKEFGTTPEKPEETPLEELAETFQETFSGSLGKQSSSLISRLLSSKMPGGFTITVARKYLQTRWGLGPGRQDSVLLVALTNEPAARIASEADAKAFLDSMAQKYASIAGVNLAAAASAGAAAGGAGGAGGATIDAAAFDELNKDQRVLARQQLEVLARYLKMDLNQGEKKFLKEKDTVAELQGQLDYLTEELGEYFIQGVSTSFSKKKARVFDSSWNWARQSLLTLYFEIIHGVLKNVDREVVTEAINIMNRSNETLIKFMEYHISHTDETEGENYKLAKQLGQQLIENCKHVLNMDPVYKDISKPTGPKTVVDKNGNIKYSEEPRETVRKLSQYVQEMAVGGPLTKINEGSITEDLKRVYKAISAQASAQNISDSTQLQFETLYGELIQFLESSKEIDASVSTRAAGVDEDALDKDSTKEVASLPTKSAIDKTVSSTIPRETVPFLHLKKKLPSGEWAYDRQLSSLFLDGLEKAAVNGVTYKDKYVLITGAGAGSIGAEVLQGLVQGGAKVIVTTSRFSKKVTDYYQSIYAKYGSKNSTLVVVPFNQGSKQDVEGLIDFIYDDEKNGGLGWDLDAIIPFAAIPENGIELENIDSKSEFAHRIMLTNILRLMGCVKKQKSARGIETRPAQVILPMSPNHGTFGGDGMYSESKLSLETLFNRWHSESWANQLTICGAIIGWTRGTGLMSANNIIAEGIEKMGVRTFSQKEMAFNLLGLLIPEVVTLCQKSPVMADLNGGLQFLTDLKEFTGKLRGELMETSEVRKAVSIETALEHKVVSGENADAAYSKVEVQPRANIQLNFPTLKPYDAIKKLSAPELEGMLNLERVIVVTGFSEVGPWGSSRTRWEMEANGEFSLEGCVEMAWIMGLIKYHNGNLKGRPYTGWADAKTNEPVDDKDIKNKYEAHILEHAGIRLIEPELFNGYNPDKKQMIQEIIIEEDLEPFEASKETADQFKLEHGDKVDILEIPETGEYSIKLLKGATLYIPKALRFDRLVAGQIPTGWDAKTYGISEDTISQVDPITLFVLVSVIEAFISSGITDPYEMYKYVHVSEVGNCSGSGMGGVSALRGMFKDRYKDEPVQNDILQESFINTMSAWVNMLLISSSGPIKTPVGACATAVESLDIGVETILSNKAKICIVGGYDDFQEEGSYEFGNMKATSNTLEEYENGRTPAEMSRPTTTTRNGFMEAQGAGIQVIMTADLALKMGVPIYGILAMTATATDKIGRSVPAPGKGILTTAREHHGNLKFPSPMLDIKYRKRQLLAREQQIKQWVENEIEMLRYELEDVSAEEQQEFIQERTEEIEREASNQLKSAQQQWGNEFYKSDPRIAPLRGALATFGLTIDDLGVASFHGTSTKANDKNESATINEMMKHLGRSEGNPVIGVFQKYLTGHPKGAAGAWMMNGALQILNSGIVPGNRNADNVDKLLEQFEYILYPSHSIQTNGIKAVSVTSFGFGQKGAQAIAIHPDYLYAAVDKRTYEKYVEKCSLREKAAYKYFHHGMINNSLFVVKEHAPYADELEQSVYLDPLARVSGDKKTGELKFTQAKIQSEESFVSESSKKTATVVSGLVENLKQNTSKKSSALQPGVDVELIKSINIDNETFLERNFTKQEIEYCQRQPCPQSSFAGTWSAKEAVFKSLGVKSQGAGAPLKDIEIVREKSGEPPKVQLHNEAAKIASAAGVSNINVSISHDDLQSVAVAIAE
T1 sequence (Q6CWN6 1-2047 partner): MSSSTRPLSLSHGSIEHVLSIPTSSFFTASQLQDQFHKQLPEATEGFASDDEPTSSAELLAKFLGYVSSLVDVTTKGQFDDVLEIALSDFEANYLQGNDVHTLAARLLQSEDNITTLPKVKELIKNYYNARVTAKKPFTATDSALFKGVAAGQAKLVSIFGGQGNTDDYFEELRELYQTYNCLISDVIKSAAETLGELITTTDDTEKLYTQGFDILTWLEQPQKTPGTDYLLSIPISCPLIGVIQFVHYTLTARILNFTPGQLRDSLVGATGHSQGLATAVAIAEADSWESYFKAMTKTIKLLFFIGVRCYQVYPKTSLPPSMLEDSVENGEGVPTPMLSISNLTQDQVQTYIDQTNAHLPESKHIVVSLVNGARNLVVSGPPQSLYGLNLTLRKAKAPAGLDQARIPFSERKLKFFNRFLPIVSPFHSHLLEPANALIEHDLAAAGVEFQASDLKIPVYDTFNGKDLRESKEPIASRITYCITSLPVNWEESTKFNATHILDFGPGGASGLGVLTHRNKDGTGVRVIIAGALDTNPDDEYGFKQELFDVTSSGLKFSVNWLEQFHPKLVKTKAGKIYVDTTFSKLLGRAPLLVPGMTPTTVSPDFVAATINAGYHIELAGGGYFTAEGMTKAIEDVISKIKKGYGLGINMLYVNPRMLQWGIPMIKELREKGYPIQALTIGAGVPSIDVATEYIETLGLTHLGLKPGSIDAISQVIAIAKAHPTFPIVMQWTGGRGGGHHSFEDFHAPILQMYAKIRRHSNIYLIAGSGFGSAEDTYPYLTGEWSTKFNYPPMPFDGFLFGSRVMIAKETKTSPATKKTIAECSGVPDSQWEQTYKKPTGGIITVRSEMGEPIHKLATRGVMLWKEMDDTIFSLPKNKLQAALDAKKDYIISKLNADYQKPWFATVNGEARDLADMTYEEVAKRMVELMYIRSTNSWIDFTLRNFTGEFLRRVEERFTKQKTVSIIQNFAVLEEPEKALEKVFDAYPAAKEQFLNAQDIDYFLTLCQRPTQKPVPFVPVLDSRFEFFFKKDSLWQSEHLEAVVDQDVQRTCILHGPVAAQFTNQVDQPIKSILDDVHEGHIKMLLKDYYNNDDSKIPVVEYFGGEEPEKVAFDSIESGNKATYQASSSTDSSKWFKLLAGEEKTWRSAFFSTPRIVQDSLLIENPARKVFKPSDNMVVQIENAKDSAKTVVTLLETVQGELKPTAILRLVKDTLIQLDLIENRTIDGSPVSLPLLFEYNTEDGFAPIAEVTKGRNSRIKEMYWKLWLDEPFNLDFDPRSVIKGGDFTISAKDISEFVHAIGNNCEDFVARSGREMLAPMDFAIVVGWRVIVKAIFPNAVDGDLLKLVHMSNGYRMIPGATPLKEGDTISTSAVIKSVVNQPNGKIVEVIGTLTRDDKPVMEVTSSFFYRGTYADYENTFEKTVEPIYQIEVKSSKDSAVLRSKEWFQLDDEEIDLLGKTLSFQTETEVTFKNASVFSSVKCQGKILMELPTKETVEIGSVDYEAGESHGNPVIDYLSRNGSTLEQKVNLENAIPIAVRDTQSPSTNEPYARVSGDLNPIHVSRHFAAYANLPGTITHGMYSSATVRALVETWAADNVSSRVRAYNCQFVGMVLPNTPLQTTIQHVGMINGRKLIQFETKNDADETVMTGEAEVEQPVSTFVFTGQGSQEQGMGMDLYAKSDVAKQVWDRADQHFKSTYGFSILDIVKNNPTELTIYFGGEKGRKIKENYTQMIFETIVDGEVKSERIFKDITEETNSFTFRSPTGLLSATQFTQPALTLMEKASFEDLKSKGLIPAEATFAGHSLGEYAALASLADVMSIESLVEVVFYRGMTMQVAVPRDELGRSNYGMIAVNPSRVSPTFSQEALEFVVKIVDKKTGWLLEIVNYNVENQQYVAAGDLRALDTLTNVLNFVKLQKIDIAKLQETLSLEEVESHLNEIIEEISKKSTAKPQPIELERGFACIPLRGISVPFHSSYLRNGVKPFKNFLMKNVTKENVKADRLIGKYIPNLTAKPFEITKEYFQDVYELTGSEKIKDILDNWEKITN

In assay [1] (substrate 20 mM), `CCOC(=O)C(=O)CCc1ccccc1` yielded a Relative activity of 0%.

The compound `CCOC(=O)C[C@H](O)CCl` returned a Relative activity in assay [2] of 0%.

Consider `CC(=O)C(C)=O` [2,3-Butanedione], for which the Relative activity in assay [1] (substrate 20 mM) is on record as 4.2%.

For `CCC(=O)C(C)=O` [2,3-Pentanedione], the “Reducing activity on substrate (in words)” value in assay [1] is recorded as “high activity”. In assay [1] (substrate 20 mM), this compound returned a Relative activity of 44.2%.

In the case of `CC(=O)CC(C)=O` [2,4-Pentanedione], the Relative activity in assay [1] (substrate 20 mM) is recorded as 0%.

`O=C1CN2CCC1CC2` [3-Quinuclidinone] came in with a Relative activity in assay [1] (substrate 20 mM) of 0.8%.

For the compound `CC(=O)CCO` [4-Hydroxy-2-butanone], the Relative activity in assay [1] (substrate 20 mM) is recorded as 0%.

In assay [1] (substrate 20 mM), `CC(=O)c1ccccc1` [Acetophenone] yielded a Relative activity of 0%.

In turn, `CC(=O)COC(C)=O` [Acetoxy-2-propanone] gave a Relative activity in assay [1] (substrate 20 mM) of 0%.

`O=C(O)C(=O)CCc1ccccc1` [Benzylpyruvic acid] yielded a Relative activity in assay [1] (substrate 1 mM) of 0%.

Turning to `C/C=C/C(=O)O` [Chlotonic acid], the remaining activity at 50000 µM in assay [3] (inhibitor 50 mM, 30° C., 10 min, standard conditions = 100%, read-out: Residual activity) worked out at 87.7%.

For the compound `O=S(=O)([O-])[O-].[Cu+2]` [Copper sulfate], the “Inhibition of the enzyme (in words)” value was “inhibited” in assay [3] and “significantly inhibited” in assay [3] (listed as cupric sulfate). The compound further came in with a Residual activity in assay [3] (setting [4]) of 0.0%.

Consider `CCC1(CC)C(=O)NC(=O)NC1=O` [Diethylbarbituric acid], for which the remaining activity at 1000 µM in assay [3] (setting [5]) was 82.5%.

Turning to `CCOC(=O)CC(=O)CCl` [Ethyl 4-chloroacetoacetate], the Relative activity in assay [1] (substrate 20 mM) worked out at 100%; in assay [1] (substrate 20 mM, listed as Ethyl 4-chloroacetoaetate), 0%.

Turning to `CCOC(=O)C[C@@H](O)CCl` [Ethyl (R)-4-chloro-3-hydroxy-acetate], the Relative activity in assay [2] is reported as 0%.

In turn, `CCOC(=O)CC(C)=O` [Ethyl acetoacetate] displayed a Relative activity in assay [1] (substrate 20 mM) of 0%.

Turning to `O=C(O)CN(CCN(CC(=O)O)CC(=O)O)CC(=O)O` [Ethylenediaminetetraacetic acid], the remaining activity at 1000 µM in assay [3] (read-out: Residual activity) was 98.4%.

For the compound `NC(=O)CI` [Iodoacetamide], the remaining activity at 1000 µM in assay [3] (setting [5]) is 53.9%.

In the case of `O=C1Nc2ccccc2C1=O` [Isatine], in assay [1] (substrate 0.4 mM), the Relative activity was 0%.

On to `[Cl][Hg][Cl]` [Mercuric chloride], for which the “Inhibition of the enzyme (in words)” value in assay [3] is reported as “significantly inhibited”. The same compound showed a Residual activity in assay [3] (inhibitor 0.01 mM, 30° C., 10 min, standard conditions = 100%) of 0.0%.

In the case of `COC(=O)CC(=O)CCl` [Methyl 4-chloroacetoacetate], in assay [1], the “Reducing activity on substrate (in words)” value was “high activity”. Further, the Relative activity in assay [1] (substrate 20 mM) was 66.3%.

As for `COC(=O)CC(C)=O` [Methyl acetoacetate], the Relative activity in assay [1] (substrate 20 mM) amounted to 0%.

For the compound `C=CC(C)=O` [Methyl vinyl ketone], the “Inhibition of the enzyme (in words)” value in assay [3] is “inhibited”. In addition, the remaining activity at 10000 µM in assay [3] (inhibitor 10 mM, 30° C., 10 min, standard conditions = 100%, read-out: Residual activity) was determined as 26.3%.

On to `CC(=O)C=O` [Methylglyoxal], for which the Relative activity in assay [1] (substrate 20 mM) came to 1.8%.

For `CCN1C(=O)C=CC1=O` [N-ethylmaleimide], the “Inhibition of the enzyme (in words)” value in assay [3] is “inhibited”. Moreover, the remaining activity at 1000 µM in assay [3] (setting [5]) turned out to be 20.1%.

Consider `O=CC(=O)c1ccccc1` [Phenylglyoxal], for which the Relative activity in assay [1] (substrate 0.5 mM) was 0%.

As for `O=S(=O)(F)Cc1ccccc1` [Phenylmethanesulfonyl fluoride], the Residual activity in assay [3] (setting [4]) is 89.4%.

In the case of `CCC=O` [Propionaldehyde], in assay [1] (substrate 20 mM), the Relative activity was 0%.

Turning to `O=Cc1cccnc1` [Pyridine-3-aldehyde], the Relative activity in assay [1] (substrate 20 mM) was found to be 0%.

`O=c1c(O)c(-c2ccc(O)c(O)c2)oc2cc(O)cc(O)c12` [Quercetin]: the remaining activity at 100 µM in assay [3] (inhibitor 0.1 mM, 30° C., 10 min, standard conditions = 100%, read-out: Residual activity) came to 68.1%.

In assay [1] (substrate 20 mM), `O=C[C@H](O)[C@@H](O)[C@H](O)CO` [Xylose] had a Relative activity of 0%.

With `O=S(=O)([O-])[O-].[Zn+2]` [Zinc sulfate], the “Inhibition of the enzyme (in words)” value in assay [3] is listed as “inhibited”. In assay [3] (setting [4]), the Residual activity was found to be 12.2%.

In turn, `O=Cc1cccc([N+](=O)[O-])c1` [m-Nitrobenzaldehyde] returned a Relative activity in assay [1] (substrate 0.2 mM) of 0.4%.

`O=Cc1ccccc1[N+](=O)[O-]` [o-Nitrobenzaldehyde]: the Relative activity in assay [1] (substrate 0.2 mM) is listed as 0%.

For `c1cnc2c(c1)ccc1cccnc12` [o-Phenanthroline], the remaining activity at 1000 µM in assay [3] (setting [5]) stood at 88.3%.

For the compound `O=C(O)c1cc[c]([Hg][Cl])cc1` [p-Chloromercuribenzoic acid], the “Inhibition of the enzyme (in words)” value is “completely inhibited” in assay [3] and “significantly inhibited” in assay [3] (listed as p-chloromercuricbenzoic acid). In assay [3] (inhibitor 0.05 mM, 30° C., 10 min, standard conditions = 100%), this compound had a Residual activity of 0.0%.

Take `O=Cc1ccc([N+](=O)[O-])cc1` [p-Nitrobenzaldehyde]: the Relative activity in assay [1] (substrate 0.2 mM) amounted to 0%.
